Laboratory results: the supplement of paper PMC8612539
Converted amounts (≈) assume the structure as drawn.

How the values were obtained:
Mannheimia haemolytica = assay: minimum inhibitory concentration (MIC)
Procedure: (§1)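 Broth microdilution MIC (Sensititre BOPO7F bovine plate, CLSI methods) of 19 antimicrobials against field isolates of P. multocida, M. haemolytica, H. somni (deep nasopharyngeal swabs) and E. coli, Enterococcus spp. (rectal swabs) from weaned dairy heifers. Incubation 16-24 h at 35 C. MIC is the lowest concentration preventing visible growth. Values with <= or > lie at the tested range limits. Trimethoprim-sulfamethoxazole is given as the trimethoprim component of a 1:19 mixture.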

Enterococcus spp. = assay: minimum inhibitory concentration (MIC)
Procedure: as §1

CNC(C)C1CCC(N)C(OC2C(N)CC(N)C(OC3OCC(C)(O)C(NC)C3O)C2O)O1 (configuration not stated) [Gentamicin]
minimum inhibitory concentration [µg/mL]
Settings | Enterococcus spp. | Mannheimia haemolytica
isolate (source animal id): 2 | 8 (≈ 16.8 µM) | –
isolate (source animal id): 35 | 16 (≈ 33.5 µM) | –
isolate (source animal id): 42 | 8 (≈ 16.8 µM) | –
isolate (source animal id): 44 | 16 (≈ 33.5 µM) | –
isolate (source animal id): 79 | 16 (≈ 33.5 µM) | –
isolate (source animal id): 88 | 4 (≈ 8.38 µM) | –
isolate (source animal id): 91 | 4 (≈ 8.38 µM) | –
isolate (source animal id): 92 | 2 (≈ 4.19 µM) | –
isolate (source animal id): 111 | 4 (≈ 8.38 µM) | –
isolate (source animal id): 122 | 16 (≈ 33.5 µM) | –
isolate (source animal id): 123 | 8 (≈ 16.8 µM) | –
isolate (source animal id): 133 | 16 (≈ 33.5 µM) | –
isolate (source animal id): 158 | 16 (≈ 33.5 µM) | –
isolate (source animal id): 168 | 8 (≈ 16.8 µM) | –
isolate (source animal id): 169 | 8 (≈ 16.8 µM) | –
isolate (source animal id): 171 | 4 (≈ 8.38 µM) | –
isolate (source animal id): 175 | 8 (≈ 16.8 µM) | –
isolate (source animal id): 177 | 8 (≈ 16.8 µM) | –
isolate (source animal id): 181 | 8 (≈ 16.8 µM) | –
isolate (source animal id): 182 | 8 (≈ 16.8 µM) | –
isolate (source animal id): 183 | 8 (≈ 16.8 µM) | –
isolate (source animal id): 187 | 8 (≈ 16.8 µM) | –
isolate (source animal id): 190 | 8 (≈ 16.8 µM) | –
isolate (source animal id): 194 | 4 (≈ 8.38 µM) | –
isolate (source animal id): 195 | 8 (≈ 16.8 µM) | –
isolate (source animal id): 197 | 8 (≈ 16.8 µM) | –
isolate (source animal id): 211 | 8 (≈ 16.8 µM) | –
isolate (source animal id): 214 | 16 (≈ 33.5 µM) | –
isolate (source animal id): 222 | 8 (≈ 16.8 µM) | –
isolate (source animal id): 223 | 8 (≈ 16.8 µM) | –
isolate (source animal id): 228 | 8 (≈ 16.8 µM) | –
isolate (source animal id): 230 | 8 (≈ 16.8 µM) | –
isolate (source animal id): 235 | 4 (≈ 8.38 µM) | –
isolate (source animal id): 236 | 4 (≈ 8.38 µM) | –
isolate (source animal id): 239 | 4 (≈ 8.38 µM) | –
isolate (source animal id): 241 | 4 (≈ 8.38 µM) | –
isolate (source animal id): 244 | 4 (≈ 8.38 µM) | –
isolate (source animal id): 246 | 8 (≈ 16.8 µM) | –
isolate (source animal id): 247 | 4 (≈ 8.38 µM) | –
isolate (source animal id): 250 | 8 (≈ 16.8 µM) | –
isolate (source animal id): 252 | 8 (≈ 16.8 µM) | –
isolate (source animal id): 268 | 4 (≈ 8.38 µM) | –
isolate (source animal id): 282 | 8 (≈ 16.8 µM) | –
isolate (source animal id): 285 | 16 (≈ 33.5 µM) | –
isolate (source animal id): 288 | – | 2 (≈ 4.19 µM)
isolate (source animal id): 289 | 4 (≈ 8.38 µM) | –
isolate (source animal id): 290 | 4 (≈ 8.38 µM) | –
isolate (source animal id): 291 | – | 2 (≈ 4.19 µM)
isolate (source animal id): 293 | – | 4 (≈ 8.38 µM)
isolate (source animal id): 296 | 8 (≈ 16.8 µM) | –
isolate (source animal id): 298 | 4 (≈ 8.38 µM) | 2 (≈ 4.19 µM)
isolate (source animal id): 299 | – | 2 (≈ 4.19 µM)
isolate (source animal id): 300 | – | 2 (≈ 4.19 µM)
isolate (source animal id): 301 | 4 (≈ 8.38 µM) | –
isolate (source animal id): 302 | – | 2 (≈ 4.19 µM)
isolate (source animal id): 304 | – | 2 (≈ 4.19 µM)
isolate (source animal id): 306 | – | 2 (≈ 4.19 µM)
isolate (source animal id): 308 | – | 2 (≈ 4.19 µM)
isolate (source animal id): 309 | – | 2 (≈ 4.19 µM)
isolate (source animal id): 310 | 4 (≈ 8.38 µM) | –
isolate (source animal id): 313 | – | 4 (≈ 8.38 µM)
isolate (source animal id): 318 | – | 2 (≈ 4.19 µM)
isolate (source animal id): 320 | 8 (≈ 16.8 µM) | 2 (≈ 4.19 µM)
isolate (source animal id): 321 | – | 4 (≈ 8.38 µM)
isolate (source animal id): 323 | – | 2 (≈ 4.19 µM)
isolate (source animal id): 324 | – | 4 (≈ 8.38 µM)
isolate (source animal id): 326 | – | 4 (≈ 8.38 µM)
isolate (source animal id): 328 | – | 4 (≈ 8.38 µM)
isolate (source animal id): 329 | – | 4 (≈ 8.38 µM)
isolate (source animal id): 331 | 8 (≈ 16.8 µM) | –
isolate (source animal id): 333 | 4 (≈ 8.38 µM) | 4 (≈ 8.38 µM)
isolate (source animal id): 335 | – | 4 (≈ 8.38 µM)
isolate (source animal id): 338 | – | 4 (≈ 8.38 µM)
isolate (source animal id): 341 | 16 (≈ 33.5 µM) | –
